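Step 1: Grow cells in 96-well plates. Step 2: Expose to compound for 48 hours at 5 concentrations. Step 3: Interpolate endpoints linearly; if unreached, use highest concentration. TGI marks complete inhibition of growth.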
Experiments:
Assay in all cases: inhibition of tumour cell growth, NCI panel, 48 h
NCI-H460 lung = system: NCI-H460 lung
A549 NSCLC = system: A549 NSCLC
SF-539 CNS = system: SF-539 CNS
LOX IMVI melanoma = system: LOX IMVI melanoma
OVCAR-8 ovarian = system: OVCAR-8 ovarian
OVCAR-3 ovarian = system: OVCAR-3 ovarian
COLO 205 colon = system: COLO 205 colon
UACC-62 melanoma = system: UACC-62 melanoma
SN12C renal = system: SN12C renal
A498 renal = system: A498 renal
CAKI-1 renal = system: CAKI-1 renal
SNB-78 CNS = system: SNB-78 CNS
NCI-H522 lung = system: NCI-H522 lung
RPMI-8226 leukemia = system: RPMI-8226 leukemia
IGROV1 ovarian = system: IGROV1 ovarian
SF-268 CNS = system: SF-268 CNS
ACHN renal = system: ACHN renal
CCRF-CEM leukemia = system: CCRF-CEM leukemia
HL-60(TB) leukemia = system: HL-60(TB) leukemia
786-0 renal = system: 786-0 renal
HOP-18 NSCLC = system: HOP-18 NSCLC
K-562 leukemia = system: K-562 leukemia
M14 melanoma = system: M14 melanoma
MALME-3M melanoma = system: MALME-3M melanoma
DMS 114 small cell lung = system: DMS 114 small cell lung
OVCAR-5 ovarian = system: OVCAR-5 ovarian
LXFL 529 NSCLC = system: LXFL 529 NSCLC
DLD-1 colon = system: DLD-1 colon
SNB-75 CNS = system: SNB-75 CNS
DMS 273 small cell lung = system: DMS 273 small cell lung
TK-10 renal = system: TK-10 renal
UACC-257 melanoma = system: UACC-257 melanoma
M19-MEL melanoma = system: M19-MEL melanoma
U251 CNS = system: U251 CNS
SK-OV-3 ovarian = system: SK-OV-3 ovarian
HCT-116 colon = system: HCT-116 colon
SF-295 CNS = system: SF-295 CNS
SK-MEL-2 melanoma = system: SK-MEL-2 melanoma
SK-MEL-28 melanoma = system: SK-MEL-28 melanoma
HOP-62 NSCLC = system: HOP-62 NSCLC
HCC-2998 colon = system: HCC-2998 colon
HT29 colon = system: HT29 colon
UO-31 renal = system: UO-31 renal
SR leukemia = system: SR leukemia
SK-MEL-5 melanoma = system: SK-MEL-5 melanoma
SNB-19 CNS = system: SNB-19 CNS
KM20L2 colon = system: KM20L2 colon
KM12 colon = system: KM12 colon
NCI-H23 lung = system: NCI-H23 lung
HCT-15 colon = system: HCT-15 colon
HOP-92 NSCLC = system: HOP-92 NSCLC
SW-620 colon = system: SW-620 colon
EKVX NSCLC = system: EKVX NSCLC
RXF 393 renal = system: RXF 393 renal
MOLT-4 leukemia = system: MOLT-4 leukemia
OVCAR-4 ovarian = system: OVCAR-4 ovarian
NCI-H226 lung = system: NCI-H226 lung

For `Nc1nc(N)c2ncn(CCCC(c3ccccc3)P(=O)(O)O)c2n1` (centres undefined), the TGI (NCI-H460 lung) was greater than 100 µM, the TGI (A549 NSCLC) was greater than 100 µM and the TGI (SF-539 CNS) was greater than 100 µM. It also gave a TGI (LOX IMVI melanoma) greater than 100 µM, a TGI (OVCAR-8 ovarian) greater than 100 µM and a TGI (OVCAR-3 ovarian) greater than 100 µM. For the same compound, the TGI (COLO 205 colon) was greater than 100 µM, the TGI (UACC-62 melanoma) was greater than 100 µM and the TGI (SN12C renal) was greater than 100 µM. For the same compound, the TGI (A498 renal) was greater than 100 µM, the TGI (CAKI-1 renal) was greater than 100 µM and the TGI (SNB-78 CNS) was greater than 100 µM. The TGI (NCI-H522 lung) was greater than 100 µM, the TGI (RPMI-8226 leukemia) was greater than 100 µM and the TGI (IGROV1 ovarian) was greater than 100 µM. It also gave a TGI (SF-268 CNS) greater than 100 µM, a TGI (ACHN renal) greater than 100 µM and a TGI (CCRF-CEM leukemia) greater than 100 µM. The TGI (HL-60(TB) leukemia) was greater than 100 µM, the TGI (786-0 renal) was greater than 100 µM and the TGI (HOP-18 NSCLC) was greater than 100 µM. It also gave a TGI (K-562 leukemia) greater than 100 µM, a TGI (M14 melanoma) greater than 100 µM and a TGI (MALME-3M melanoma) greater than 100 µM. For the same compound, the TGI (DMS 114 small cell lung) was greater than 100 µM, the TGI (OVCAR-5 ovarian) was greater than 100 µM and the TGI (LXFL 529 NSCLC) was greater than 100 µM. It also gave a TGI (DLD-1 colon) greater than 100 µM, a TGI (SNB-75 CNS) greater than 100 µM and a TGI (DMS 273 small cell lung) greater than 100 µM. It also gave a TGI (TK-10 renal) greater than 100 µM, a TGI (UACC-257 melanoma) greater than 100 µM and a TGI (M19-MEL melanoma) greater than 100 µM. For the same compound, the TGI (U251 CNS) was greater than 100 µM, the TGI (SK-OV-3 ovarian) was greater than 100 µM and the TGI (HCT-116 colon) was greater than 100 µM. For the same compound, the TGI (SF-295 CNS) was greater than 100 µM, the TGI (SK-MEL-2 melanoma) was greater than 100 µM and the TGI (SK-MEL-28 melanoma) was greater than 100 µM. For the same compound, the TGI (HOP-62 NSCLC) was greater than 100 µM, the TGI (HCC-2998 colon) was greater than 100 µM and the TGI (HT29 colon) was greater than 100 µM. It also gave a TGI (UO-31 renal) greater than 100 µM, a TGI (SR leukemia) greater than 100 µM and a TGI (SK-MEL-5 melanoma) greater than 100 µM. For the same compound, the TGI (SNB-19 CNS) was greater than 100 µM, the TGI (KM20L2 colon) was greater than 100 µM and the TGI (KM12 colon) was greater than 100 µM. It also gave a TGI (NCI-H23 lung) of 36 µM, a TGI (HCT-15 colon) greater than 100 µM and a TGI (HOP-92 NSCLC) greater than 100 µM. It also gave a TGI (SW-620 colon) greater than 100 µM.
Compound `CN(C)CC/C(=N\Nc1ccc(Cl)cc1)c1ccccc1` has a TGI (EKVX NSCLC) of 4.35 µM, a TGI (NCI-H460 lung) of 2.45 µM and a TGI (A549 NSCLC) of 3.29 µM. The TGI (SF-539 CNS) was 3.65 µM, the TGI (LOX IMVI melanoma) was 0.691 µM and the TGI (OVCAR-8 ovarian) was 11.5 µM. For the same compound, the TGI (OVCAR-3 ovarian) was 3.15 µM, the TGI (COLO 205 colon) was 3.27 µM and the TGI (UACC-62 melanoma) was 2.07 µM. The TGI (SN12C renal) was 4.13 µM, the TGI (A498 renal) was 10.8 µM and the TGI (SNB-78 CNS) was 5.13 µM. The TGI (NCI-H522 lung) was 3.78 µM, the TGI (RPMI-8226 leukemia) was 3.13 µM and the TGI (IGROV1 ovarian) was 4.67 µM. For the same compound, the TGI (SF-268 CNS) was 3.67 µM, the TGI (ACHN renal) was 2.59 µM and the TGI (CCRF-CEM leukemia) was 11.2 µM. The TGI (HL-60(TB) leukemia) was 2.17 µM, the TGI (786-0 renal) was 3.88 µM and the TGI (RXF 393 renal) was 10.3 µM. For the same compound, the TGI (HOP-18 NSCLC) was 7.78 µM, the TGI (K-562 leukemia) was 1.03 µM and the TGI (M14 melanoma) was 3.17 µM. It also gave a TGI (MOLT-4 leukemia) of 10.2 µM, a TGI (MALME-3M melanoma) of 3.95 µM and a TGI (DMS 114 small cell lung) of 4.45 µM. For the same compound, the TGI (OVCAR-5 ovarian) was 2.66 µM, the TGI (LXFL 529 NSCLC) was 0.373 µM and the TGI (DLD-1 colon) was 3.74 µM. For the same compound, the TGI (SNB-75 CNS) was 6.45 µM, the TGI (DMS 273 small cell lung) was 1.61 µM and the TGI (TK-10 renal) was 2.32 µM. The TGI (UACC-257 melanoma) was 3.35 µM, the TGI (M19-MEL melanoma) was 3.2 µM and the TGI (U251 CNS) was 1.74 µM. It also gave a TGI (OVCAR-4 ovarian) of 7.05 µM, a TGI (SK-OV-3 ovarian) of 7.04 µM and a TGI (HCT-116 colon) of 2.6 µM. It also gave a TGI (SF-295 CNS) of 1.25 µM, a TGI (SK-MEL-2 melanoma) of 4.58 µM and a TGI (SK-MEL-28 melanoma) of 2.92 µM. It also gave a TGI (HOP-62 NSCLC) of 3.62 µM, a TGI (HT29 colon) of 3 µM and a TGI (UO-31 renal) of 0.986 µM. For the same compound, the TGI (SR leukemia) was 4.4 µM, the TGI (SK-MEL-5 melanoma) was 3.27 µM and the TGI (SNB-19 CNS) was 6.91 µM. The TGI (KM20L2 colon) was 0.349 µM, the TGI (KM12 colon) was 2.93 µM and the TGI (NCI-H23 lung) was 3.93 µM. It also gave a TGI (HCT-15 colon) of 1.23 µM and a TGI (SW-620 colon) of 2.37 µM.
`COC(=O)C1[C@@H](C(=O)OC)C(=O)O[C@H]1c1cc(OC)c(OC)c(OC)c1` (some centres undefined) showed a TGI (NCI-H460 lung) greater than 100 µM, a TGI (A549 NSCLC) greater than 100 µM and a TGI (SF-539 CNS) greater than 100 µM. It also gave a TGI (LOX IMVI melanoma) greater than 100 µM, a TGI (NCI-H226 lung) greater than 100 µM and a TGI (OVCAR-8 ovarian) greater than 100 µM. For the same compound, the TGI (OVCAR-3 ovarian) was greater than 100 µM, the TGI (COLO 205 colon) was greater than 100 µM and the TGI (UACC-62 melanoma) was greater than 100 µM. For the same compound, the TGI (SN12C renal) was greater than 100 µM, the TGI (A498 renal) was greater than 100 µM and the TGI (CAKI-1 renal) was greater than 100 µM. The TGI (SNB-78 CNS) was greater than 100 µM, the TGI (RPMI-8226 leukemia) was greater than 100 µM and the TGI (IGROV1 ovarian) was greater than 100 µM. The TGI (SF-268 CNS) was greater than 100 µM, the TGI (ACHN renal) was greater than 100 µM and the TGI (CCRF-CEM leukemia) was greater than 100 µM. For the same compound, the TGI (HL-60(TB) leukemia) was greater than 100 µM, the TGI (786-0 renal) was greater than 100 µM and the TGI (RXF 393 renal) was greater than 100 µM. For the same compound, the TGI (HOP-18 NSCLC) was greater than 100 µM, the TGI (K-562 leukemia) was greater than 100 µM and the TGI (M14 melanoma) was greater than 100 µM. The TGI (MOLT-4 leukemia) was greater than 100 µM, the TGI (MALME-3M melanoma) was greater than 100 µM and the TGI (DMS 114 small cell lung) was greater than 100 µM. It also gave a TGI (OVCAR-5 ovarian) greater than 100 µM, a TGI (LXFL 529 NSCLC) greater than 100 µM and a TGI (DLD-1 colon) greater than 100 µM. It also gave a TGI (SNB-75 CNS) greater than 100 µM, a TGI (DMS 273 small cell lung) greater than 100 µM and a TGI (TK-10 renal) greater than 100 µM. It also gave a TGI (UACC-257 melanoma) greater than 100 µM, a TGI (M19-MEL melanoma) greater than 100 µM and a TGI (U251 CNS) greater than 100 µM. It also gave a TGI (OVCAR-4 ovarian) greater than 100 µM, a TGI (SK-OV-3 ovarian) greater than 100 µM and a TGI (HCT-116 colon) greater than 100 µM. For the same compound, the TGI (SF-295 CNS) was greater than 100 µM, the TGI (SK-MEL-28 melanoma) was greater than 100 µM and the TGI (HOP-62 NSCLC) was greater than 100 µM. For the same compound, the TGI (HCC-2998 colon) was greater than 100 µM, the TGI (HT29 colon) was greater than 100 µM and the TGI (UO-31 renal) was greater than 100 µM. For the same compound, the TGI (SR leukemia) was greater than 100 µM, the TGI (SK-MEL-5 melanoma) was greater than 100 µM and the TGI (SNB-19 CNS) was greater than 100 µM. It also gave a TGI (KM20L2 colon) greater than 100 µM, a TGI (KM12 colon) greater than 100 µM and a TGI (NCI-H23 lung) greater than 100 µM. For the same compound, the TGI (HCT-15 colon) was greater than 100 µM, the TGI (HOP-92 NSCLC) was greater than 100 µM and the TGI (SW-620 colon) was greater than 100 µM.
